Reference: ChEMBL document CHEMBL1137331 (J Med Chem, 2006)

Assays:
[1] = target: Tyrosine-protein kinase Lck (Homo sapiens, UniProt P06239)
Description: Inhibition of human Lck in presence of ATP

[2] = tested on: T-cell; test: Inhibition of anti CD3/anti CD28-induced T cell proliferation; format: functional, cell-based; conditions: Homo sapiens
[3] = target: Proto-oncogene tyrosine-protein kinase LCK (Mus musculus, UniProt P06240)
Description: Inhibition of murine Lck in presence of ATP

[4] = target: Receptor tyrosine-protein kinase erbB-2 (Homo sapiens, UniProt P04626); test: Inhibition of Her2
[5] = target: Tyrosine-protein kinase Lyn (Homo sapiens, UniProt P07948); test: Inhibition of Lyn
Sequence of Tyrosine-protein kinase Lyn (P07948 whole entry): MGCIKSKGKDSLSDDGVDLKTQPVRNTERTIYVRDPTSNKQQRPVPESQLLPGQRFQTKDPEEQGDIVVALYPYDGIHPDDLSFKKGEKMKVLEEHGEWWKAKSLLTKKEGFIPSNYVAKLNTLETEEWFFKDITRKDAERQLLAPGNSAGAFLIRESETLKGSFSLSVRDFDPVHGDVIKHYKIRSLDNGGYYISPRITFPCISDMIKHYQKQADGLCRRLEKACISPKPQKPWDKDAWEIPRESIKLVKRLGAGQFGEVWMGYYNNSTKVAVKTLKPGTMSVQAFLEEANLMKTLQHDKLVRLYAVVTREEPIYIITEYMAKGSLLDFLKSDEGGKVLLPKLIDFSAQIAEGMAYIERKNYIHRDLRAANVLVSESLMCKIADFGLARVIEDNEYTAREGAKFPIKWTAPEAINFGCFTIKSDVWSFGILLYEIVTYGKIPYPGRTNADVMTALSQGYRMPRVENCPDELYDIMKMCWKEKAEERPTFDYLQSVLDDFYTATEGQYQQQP

[6] = tested on: PBMC; test: Inhibition of LPS-induced TNFalpha production in human PBMC; format: functional, cell-based
[7] = tested on: Mus musculus; test: Inhibition of LPS-induced TNFalpha production in C57BL/6 mouse at 60 mg/kg, po; conditions: C57BL/6, po
[8] = tested on: Mus musculus; test: Inhibition of anti CD3/anti CD28-induced IL2 production in po dosed BALB/c mouse; format: functional
[9] = target: Proto-oncogene tyrosine-protein kinase Src (Homo sapiens, UniProt P12931); test: Inhibition of Src in presence of ATP
Sequence of Proto-oncogene tyrosine-protein kinase Src (P12931 2-536 limits assumed): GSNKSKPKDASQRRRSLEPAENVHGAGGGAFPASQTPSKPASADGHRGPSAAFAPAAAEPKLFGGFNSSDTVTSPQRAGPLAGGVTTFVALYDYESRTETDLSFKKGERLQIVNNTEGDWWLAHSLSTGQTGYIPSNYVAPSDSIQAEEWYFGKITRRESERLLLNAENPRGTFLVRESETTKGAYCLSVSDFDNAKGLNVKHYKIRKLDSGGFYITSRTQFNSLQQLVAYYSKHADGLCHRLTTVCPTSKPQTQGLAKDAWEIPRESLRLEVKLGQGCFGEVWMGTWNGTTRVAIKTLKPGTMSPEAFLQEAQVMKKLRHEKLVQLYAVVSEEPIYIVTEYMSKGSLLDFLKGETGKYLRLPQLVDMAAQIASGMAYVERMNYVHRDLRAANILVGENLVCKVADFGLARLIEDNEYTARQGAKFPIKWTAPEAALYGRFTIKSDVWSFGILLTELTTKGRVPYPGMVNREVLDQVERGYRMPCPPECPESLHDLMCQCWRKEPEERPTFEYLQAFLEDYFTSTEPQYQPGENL

[10] = target: Tyrosine-protein kinase Yes (Homo sapiens, UniProt P07947); test: Inhibition of Yes
Sequence of Tyrosine-protein kinase Yes (P07947 whole entry): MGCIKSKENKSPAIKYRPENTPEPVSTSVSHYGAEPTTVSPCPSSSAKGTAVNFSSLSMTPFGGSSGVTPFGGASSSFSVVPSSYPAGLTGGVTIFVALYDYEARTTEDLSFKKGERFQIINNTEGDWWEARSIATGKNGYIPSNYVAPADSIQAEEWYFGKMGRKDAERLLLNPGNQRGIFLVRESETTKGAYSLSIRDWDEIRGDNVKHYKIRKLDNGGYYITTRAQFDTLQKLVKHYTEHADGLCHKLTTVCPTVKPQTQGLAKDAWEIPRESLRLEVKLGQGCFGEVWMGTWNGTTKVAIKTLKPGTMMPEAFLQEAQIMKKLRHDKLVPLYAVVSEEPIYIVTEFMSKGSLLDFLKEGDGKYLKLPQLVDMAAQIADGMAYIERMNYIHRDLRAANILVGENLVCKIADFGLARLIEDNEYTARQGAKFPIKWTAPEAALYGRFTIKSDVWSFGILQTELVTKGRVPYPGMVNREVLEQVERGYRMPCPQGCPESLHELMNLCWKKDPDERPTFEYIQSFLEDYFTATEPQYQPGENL

[11] = tested on: Rattus norvegicus; test: Volume of distribution in rat at 10 mg/kg, iv and po; format: ADME, organism-based; design: dose 10 mg/kg, route oral; conditions: in vivo
[12] = target: Tyrosine-protein kinase Fgr (Homo sapiens, UniProt P09769); test: Inhibition of Fgr
[13] = target: Fibroblast growth factor receptor 1 (Homo sapiens, UniProt P11362); test: Inhibition of FGFR1
Sequence of Fibroblast growth factor receptor 1 (P11362 whole entry): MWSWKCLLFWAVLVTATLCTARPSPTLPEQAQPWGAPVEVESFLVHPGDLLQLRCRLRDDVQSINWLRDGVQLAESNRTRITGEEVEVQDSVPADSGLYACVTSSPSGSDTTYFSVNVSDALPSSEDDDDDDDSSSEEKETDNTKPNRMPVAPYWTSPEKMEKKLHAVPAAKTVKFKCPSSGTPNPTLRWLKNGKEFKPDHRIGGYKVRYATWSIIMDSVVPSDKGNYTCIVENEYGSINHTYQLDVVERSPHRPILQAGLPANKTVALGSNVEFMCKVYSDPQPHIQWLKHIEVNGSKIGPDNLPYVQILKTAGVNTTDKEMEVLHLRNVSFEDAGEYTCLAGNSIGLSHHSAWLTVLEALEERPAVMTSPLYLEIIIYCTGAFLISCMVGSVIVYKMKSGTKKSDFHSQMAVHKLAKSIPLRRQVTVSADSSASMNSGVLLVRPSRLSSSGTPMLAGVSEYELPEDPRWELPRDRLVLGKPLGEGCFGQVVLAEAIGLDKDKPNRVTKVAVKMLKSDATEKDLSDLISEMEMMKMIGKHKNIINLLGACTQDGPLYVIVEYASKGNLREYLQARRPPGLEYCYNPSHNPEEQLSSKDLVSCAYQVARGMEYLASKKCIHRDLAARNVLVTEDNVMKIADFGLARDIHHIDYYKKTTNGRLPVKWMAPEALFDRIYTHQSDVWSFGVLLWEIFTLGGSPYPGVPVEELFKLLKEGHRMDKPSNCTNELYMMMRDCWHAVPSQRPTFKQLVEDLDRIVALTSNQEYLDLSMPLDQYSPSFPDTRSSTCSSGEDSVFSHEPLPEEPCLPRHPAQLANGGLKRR

[14] = target: Proto-oncogene tyrosine-protein kinase LCK (Mus musculus) (UniProt P06240); conditions: 50 uM
Description: Inhibition of murine Lck at 50 uM

Sequence of Tyrosine-protein kinase Lck (P06239 whole entry): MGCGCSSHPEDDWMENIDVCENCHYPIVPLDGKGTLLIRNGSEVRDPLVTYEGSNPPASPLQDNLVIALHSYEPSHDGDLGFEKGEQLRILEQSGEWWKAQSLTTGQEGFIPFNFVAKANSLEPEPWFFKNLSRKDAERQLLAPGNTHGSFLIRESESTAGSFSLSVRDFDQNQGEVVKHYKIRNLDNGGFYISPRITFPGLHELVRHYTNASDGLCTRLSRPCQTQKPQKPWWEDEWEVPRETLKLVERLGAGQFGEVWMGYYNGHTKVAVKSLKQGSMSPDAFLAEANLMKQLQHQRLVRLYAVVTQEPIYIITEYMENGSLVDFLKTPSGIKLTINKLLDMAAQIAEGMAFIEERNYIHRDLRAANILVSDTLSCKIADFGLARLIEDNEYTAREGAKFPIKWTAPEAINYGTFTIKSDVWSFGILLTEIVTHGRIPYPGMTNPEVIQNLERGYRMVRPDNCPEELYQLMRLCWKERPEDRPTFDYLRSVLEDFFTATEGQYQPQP
Sequence of Proto-oncogene tyrosine-protein kinase LCK (P06240 whole entry): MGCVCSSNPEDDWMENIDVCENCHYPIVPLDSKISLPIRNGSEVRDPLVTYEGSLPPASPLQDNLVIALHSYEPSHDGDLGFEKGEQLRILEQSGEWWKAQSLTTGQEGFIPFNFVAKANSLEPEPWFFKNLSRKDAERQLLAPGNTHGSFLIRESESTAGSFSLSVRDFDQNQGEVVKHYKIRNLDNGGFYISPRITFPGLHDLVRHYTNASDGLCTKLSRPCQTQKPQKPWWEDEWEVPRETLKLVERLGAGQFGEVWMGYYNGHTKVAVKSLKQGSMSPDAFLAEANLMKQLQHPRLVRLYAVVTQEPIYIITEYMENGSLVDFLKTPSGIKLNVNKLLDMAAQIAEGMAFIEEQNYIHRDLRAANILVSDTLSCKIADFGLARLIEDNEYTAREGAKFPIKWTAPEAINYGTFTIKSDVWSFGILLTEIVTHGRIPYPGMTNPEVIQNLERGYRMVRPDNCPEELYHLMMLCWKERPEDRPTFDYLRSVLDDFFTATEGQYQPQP
Sequence of Receptor tyrosine-protein kinase erbB-2 (P04626 whole entry): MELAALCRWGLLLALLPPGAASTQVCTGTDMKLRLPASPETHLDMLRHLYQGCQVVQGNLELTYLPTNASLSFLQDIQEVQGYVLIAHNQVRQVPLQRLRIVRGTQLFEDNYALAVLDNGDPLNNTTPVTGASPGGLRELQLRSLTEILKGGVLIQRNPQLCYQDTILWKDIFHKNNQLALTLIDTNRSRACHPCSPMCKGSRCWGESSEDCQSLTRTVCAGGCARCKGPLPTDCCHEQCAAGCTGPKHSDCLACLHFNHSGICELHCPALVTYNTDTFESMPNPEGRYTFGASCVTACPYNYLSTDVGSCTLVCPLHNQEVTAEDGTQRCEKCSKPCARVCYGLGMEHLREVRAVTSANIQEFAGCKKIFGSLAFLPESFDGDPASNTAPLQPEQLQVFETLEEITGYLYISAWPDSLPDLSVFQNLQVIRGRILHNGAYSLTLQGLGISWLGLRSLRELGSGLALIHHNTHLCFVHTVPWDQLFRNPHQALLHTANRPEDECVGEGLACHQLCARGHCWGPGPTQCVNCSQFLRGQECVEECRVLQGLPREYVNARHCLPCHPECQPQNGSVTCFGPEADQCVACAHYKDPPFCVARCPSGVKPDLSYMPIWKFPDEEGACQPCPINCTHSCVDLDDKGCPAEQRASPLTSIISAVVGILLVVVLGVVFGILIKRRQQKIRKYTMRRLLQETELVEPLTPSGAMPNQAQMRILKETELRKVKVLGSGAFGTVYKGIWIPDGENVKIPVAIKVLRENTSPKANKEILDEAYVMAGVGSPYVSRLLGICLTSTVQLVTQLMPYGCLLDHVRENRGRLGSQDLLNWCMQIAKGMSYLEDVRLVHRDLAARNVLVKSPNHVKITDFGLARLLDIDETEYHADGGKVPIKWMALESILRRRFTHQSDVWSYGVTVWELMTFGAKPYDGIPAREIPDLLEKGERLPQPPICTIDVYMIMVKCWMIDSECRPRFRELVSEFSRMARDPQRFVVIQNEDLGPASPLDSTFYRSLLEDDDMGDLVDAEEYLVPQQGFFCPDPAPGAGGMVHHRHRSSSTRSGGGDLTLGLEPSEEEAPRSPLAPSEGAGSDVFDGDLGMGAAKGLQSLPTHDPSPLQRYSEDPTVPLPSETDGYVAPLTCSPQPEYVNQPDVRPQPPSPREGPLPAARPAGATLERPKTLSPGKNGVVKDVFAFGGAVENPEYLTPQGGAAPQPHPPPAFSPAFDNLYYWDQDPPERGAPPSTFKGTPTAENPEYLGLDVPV

| IC50 [1] [nM] | Compound | IC50 [2] [nM] | also measured |
| --- | --- | --- | --- |
| 130 | Cc1cc(C)c(NC(=O)c2sc(NC(=O)NCc3ccccc3)nc2C)c(C)c1 | – | IC50 [3]: 100 nM |
| 3 | Cc1cc(C)c(NC(=O)c2cnc(Nc3cc(C)nc(C)n3)s2)c(C)c1 | 140 | – |
| 0.2 | Cc1nc(NCCO)cc(Nc2ncc(C(=O)Nc3c(C)cccc3Cl)s2)n1 | 23 | – |
| – | Cc1ccc(NC(=O)c2sc(NC(=O)OC(C)(C)C)nc2C)c(C)c1 | – | IC50 [3]: 27400 nM |
| 390 | Cc1cccc(Cl)c1NC(=O)c1sc(NC(=O)c2ccsc2)nc1C | – | – |
| 1340 | Cc1cccc(Cl)c1NC(=O)c1cnc(NC(=O)C2CCCC2)s1 | – | – |
| – | Cc1nc(Nc2ncc(C(=O)Nc3c(C)cccc3Cl)s2)cc(N2CCN(CCO)CC2)n1 [DASATINIB] | 3 | – |
| 1.3 | Cc1nc(Nc2ncc(C(=O)Nc3c(C)cccc3Cl)s2)cc(N2CCOCC2)n1 | 5 | – |
| 4 | Cc1cc(C)nc(Nc2ncc(C(=O)Nc3c(C)cccc3Cl)s2)c1 | 140 | – |
| 12100 | Cc1cc(C)c(NC(=O)c2sc(NC(=O)C(C)(C)C)nc2C)c(C)c1 | – | – |
| 1.2 | Cc1cccc(Cl)c1NC(=O)c1cnc(Nc2ccccn2)s1 | 140 | – |
| – | Cc1cccc(Cl)c1NC(=O)c1cnc(NC(=O)C2CC2)s1 | 884 | – |
| – | Cc1nc(NC(=O)OC(C)(C)C)sc1C(=O)Nc1ccccc1 | – | inhibition [14]: 28% |
| 2230 | Cc1cccc(Cl)c1NC(=O)c1cnc(NC(=O)c2cccs2)s1 | – | – |
| 1300 | Cc1cc(C)c(NC(=O)c2sc(NC(=O)NC(C)(C)C)nc2C)c(C)c1 | – | – |
| 6.7 | Cc1cccc(Cl)c1NC(=O)c1cnc(Nc2cccnc2)s1 | 870 | – |
| – | Cc1cc(C)c(NC(=O)c2sc(NC(=O)OCc3ccccc3)nc2C)c(C)c1 | – | IC50 [3]: 33300 nM |
| 6.3 | Cc1cnc(Nc2ncc(C(=O)Nc3c(C)cccc3Cl)s2)c(C)n1 | 570 | – |
| 0.5 | Cc1ccnc(Nc2ncc(C(=O)Nc3c(C)cccc3Cl)s2)c1 | 80 | – |
| 480 | CC(=O)Nc1nc(C)c(C(=O)Nc2c(C)cc(C)cc2C)s1 | – | IC50 [3]: 510 nM |
| 180 | Cc1cc(C)c(NC(=O)c2sc(NC(=O)c3ccsc3)nc2C)c(C)c1 | – | – |
| 0.6 | Cc1cccc(Nc2ncc(C(=O)Nc3c(C)cccc3Cl)s2)n1 | 110 | – |
| 1.2 | Cc1cccc(C)c1NC(=O)c1cnc(Nc2ccccn2)s1 | 180 | – |
| 1200 | Cc1cc(C)c(NC(=O)c2sc(NC(=O)c3ccoc3)nc2C)c(C)c1 | – | – |
| 5 | Cc1cc(C)c(NC(=O)c2cnc(Nc3ccccn3)s2)c(C)c1 | 510 | – |
| – | Cc1cc(C)c(NC(=O)c2sc(N)nc2C)c(C)c1 | > 10000 | – |
| 4 | Cc1cccc(Cl)c1NC(=O)c1cnc(Nc2cccnn2)s1 | 350 | – |
| 9.4 | Cc1cccc(Cl)c1NC(=O)c1cnc(Nc2ccncc2)s1 | 270 | – |

| Compound | IC50 [1] [nM] | IC50 [2] [nM] | also measured |
| --- | --- | --- | --- |
| Cc1cccc(Cl)c1NC(=O)c1cnc(NC(=O)c2ccsc2)s1 | 17 | > 2000 | – |
| Cc1cccc(Cl)c1NC(=O)c1sc(NC(=O)c2cccs2)nc1C | 130 | – | – |
| Cc1cccc(Cl)c1NC(=O)c1cnc(Nc2cc(N3CCOCC3)ncn2)s1 | 0.5 | 3 | – |
| Cc1cc(Nc2ncc(C(=O)Nc3c(C)cccc3Cl)s2)nc(C)n1 | 1 | 80 | IC50 [4]: 500 nM; IC50 [5]: 4 nM; IC50 [6]: 670 nM; inhibition in vivo at 60 mg/kg [7]: 90%; ED50 [8]: 5 mg/kg; IC50 [9]: < 2 nM; IC50 [10]: 2 nM; Ki [3]: 0.13 nM; Vss [11]: 12 L/kg; IC50 [12]: 0.8 nM; IC50 [13]: > 10000 nM |
| Cc1cccc(Cl)c1NC(=O)c1cnc(Nc2cccc(NCCCn3ccnc3)n2)s1 | < 0.5 | 2 | – |
| Cc1cc(C)c(NC(=O)c2sc(NC(=O)Nc3ccccc3)nc2C)c(C)c1 | 160 | – | IC50 [3]: 90 nM |
| Cc1cc(C)nc(Nc2ncc(C(=O)Nc3c(C)cccc3Cl)s2)n1 | 50 | – | – |
| Cc1cccc(Cl)c1NC(=O)c1cnc(Nc2cccc(NCCO)n2)s1 | < 0.2 | 75 | – |
| Cc1cc(C)c(NC(=O)c2cnc(Nc3cnccn3)s2)c(C)c1 | 4.9 | 500 | – |
| Cc1nc(NCCCN2CCOCC2)cc(Nc2ncc(C(=O)Nc3c(C)cccc3Cl)s2)n1 | 0.7 | 7 | – |
| Cc1nc(Nc2ncc(C(=O)Nc3c(C)cccc3Cl)s2)cc(N2CCC(CO)CC2)n1 | 0.7 | 4 | – |
| Cc1cccc(C)c1NC(=O)c1cnc(Nc2cccnn2)s1 | 0.3 | 350 | – |
| Cc1cccc(Cl)c1NC(=O)c1cnc(Nc2cccc(NCCCN3CCOCC3)n2)s1 | 0.5 | 8 | – |
